Source: the NIST ThermoML archive (doi:10.1021/je2012633)

Columns and labels:
[1] = xn = mol fraction of the nth substance listed; details: 101 kPa, Liquid, Vibrating tube method
[2] = 101 kPa, Liquid, Vibrating tube method

CCCCCCCCOS(=O)(=O)[O-].CCn1cc[n+](C)c1 [1-ethyl-3-methylimidazolium octyl sulfate] + CCO
mass density [kg/m3], [1]
Details | x1 = 0.098 | x1 = 0.1901 | x1 = 0.2985 | x1 = 0.3955 | x1 = 0.4964 | x1 = 0.5975 | x1 = 0.6844 | x1 = 0.792 | x1 = 0.9047 | x1 = 1
288.15 K | 906.4 | 964.1 | 1006.3 | 1031.6 | 1050.9 | 1065.6 | 1075.6 | 1085.7 | 1094.4 | 1100.7
298.15 K | 898.5 | 956.5 | 998.9 | 1024.4 | 1043.9 | 1058.7 | 1068.8 | 1078.9 | 1087.5 | 1093.8
308.15 K | 890.7 | 949 | 991.8 | 1017.4 | 1037 | 1051.9 | 1062.1 | 1072.3 | 1081 | 1087
318.15 K | 882.8 | 941.4 | 984.4 | 1010.3 | 1030.1 | 1045.2 | 1055.4 | 1065.8 | 1074.4 | 1080.5

CCOS(=O)(=O)[O-].CCn1cc[n+](C)c1 [1-ethyl-3-methylimidazolium ethyl sulfate] + CCO
mass density [kg/m3], [1]
Details | 288.15 K | 298.15 K | 308.15 K | 318.15 K
x1 = 0.0494 | 864.9 | 856.6 | 848.1 | 839.7
x1 = 0.1233 | 943.6 | 935.6 | 927.6 | 919.5
x1 = 0.2469 | 1035.3 | 1027.6 | 1019.9 | 1012.3
x1 = 0.3485 | 1088.4 | 1080.9 | 1073.4 | 1066
x1 = 0.4727 | 1136.8 | 1129.5 | 1122.2 | 1115
x1 = 0.5667 | 1164.9 | 1157.7 | 1150.6 | 1143.5
x1 = 0.6483 | 1185.3 | 1178.2 | 1171.2 | 1164.2
x1 = 0.7421 | 1205.3 | 1198.3 | 1191.3 | 1184.4
x1 = 0.827 | 1220.5 | 1213.8 | 1206.8 | 1200
x1 = 0.9211 | 1234.8 | 1227.9 | 1221.1 | 1214.3
x1 = 1 | 1245.3 | 1238.3 | 1231.6 | 1224.9

CCOS(=O)(=O)[O-].CCn1cc[n+](C)c1 [1-ethyl-3-methylimidazolium ethyl sulfate] + O
mass density [kg/m3], [1]
Details | 288.15 K | 298.15 K | 308.15 K | 318.15 K
x1 = 0.0319 | 1064.5 | 1059.9 | 1054.4 | 1048.4
x1 = 0.07 | 1114.1 | 1108 | 1101.8 | 1095.1
x1 = 0.1022 | 1141.9 | 1135.3 | 1128.5 | 1121.5
x1 = 0.1961 | 1186.1 | 1178.9 | 1171.8 | 1164.6
x1 = 0.2988 | 1208.5 | 1201.4 | 1194.3 | 1187.2
x1 = 0.395 | 1220.4 | 1213.4 | 1206.3 | 1199.3
x1 = 0.4939 | 1228.4 | 1221.4 | 1214.4 | 1207.4
x1 = 0.5829 | 1233.3 | 1226.4 | 1219.4 | 1212.5
x1 = 0.6798 | 1237.1 | 1230.2 | 1223.4 | 1216.6
x1 = 0.7975 | 1240.8 | 1233.9 | 1227.1 | 1220.3
x1 = 0.8726 | 1242.6 | 1235.8 | 1229 | 1222.3
x1 = 1 | 1245.3 | 1238.3 | 1231.6 | 1224.9

CCOS(=O)(=O)[O-].CCn1cc[n+](C)c1 [1-ethyl-3-methylimidazolium ethyl sulfate]
[2]
Details | mass density [kg/m3]
288.15 K | 1245.3
298.15 K | 1238.3
308.15 K | 1231.6
318.15 K | 1224.9

CCCCCCCCOS(=O)(=O)[O-].CCn1cc[n+](C)c1 [1-ethyl-3-methylimidazolium octyl sulfate] + O
mass density [kg/m3], [1]
Details | x1 = 0.0053 | x1 = 0.1002 | x1 = 0.3923 | x1 = 0.5963 | x1 = 0.7373 | x1 = 0.7747 | x1 = 0.8545 | x1 = 0.9371 | x1 = 1
298.15 K | 1005.3 | 1060.6 | 1086.3 | 1090.5 | 1092.1 | 1092.4 | 1093 | 1093.5 | 1093.8
308.15 K | 1001.8 | 1054 | 1079.6 | 1083.8 | 1085.5 | 1085.7 | 1086.4 | 1086.9 | 1087
318.15 K | 997.3 | 1047.4 | 1072.9 | 1077.2 | 1079.1 | 1079.2 | 1079.9 | 1080.4 | 1080.5

CCO [ethanol] + CCOS(=O)(=O)[O-].CCn1cc[n+](C)c1
[1], x2 = 0
Details | mass density [kg/m3]
288.15 K | 794.4
298.15 K | 785.8
308.15 K | 777.1
318.15 K | 768.3
